Laboratory results taken from patent publication US12043614B2, “Salts of a Pim kinase inhibitor” (Incyte Corporation, priority 2015, dated 2024).
Counter-ions that a name gives are not always drawn.

Experiments:
[1] = Competitive stability study (slurry of Forms I-VI, XRPD); format: physicochemical; conditions: 2 days, room temperature
Experimental: To evaluate the transformation of Compound 1 phosphate solid forms, competitive slurry experiments were performed as follows: to a saturated solution (1.5 mL) of Compound 1 phosphate Form I in the solvent as listed in Table 14 was added Form I (6 mg), followed by stirring to give a cloudy solution, then 6 mg each of Form II through Form VI were added to the mixture. The slurry was stirred for 2 days at room temperature and analyzed by XRPD.

Pim-2 = molecular target: T1, Pim-2 (Homo sapiens, UniProt Q9P1W9); assay: Pim-2 kinase assay; format: biochemical; conditions: 1 mM ATP; read-out: IC50 PIM2 Enzyme (Ex. A)
T1 construct: purchased Invitrogen PV3649
Experimental: Pim-2 kinase assay—20 μL reactions are run in white 384 well polystyrene plates dotted with 0.8 μL compound/DMSO in the assay buffer (50 mM Tris, pH 7.5, 0.01% Tween-20, 5 mM MgCl2, 0.01% BSA, 5 mM DTT), containing 0.05 μM Fluorescein-labeled CREBtide peptide substrate (Invitrogen PV3508), 1 mM ATP, and 1 nM enzyme (Invitrogen PV3649) for 2 h at 25° C. Reactions are stopped by addition of 10 μL TR-FRET Dilution Buffer (Invitrogen PV3574) with 30 mM EDTA and 1.5 nM LanthaScreen Tb-CREB pSer133 antibody (Invitrogen PV3566). After 30 min. incubation at room temperature, plates are read on a PHERAstar FS plate reader (BMG Labtech).

pBAD in KMS12BM cells [2] = assay: pBAD signaling assay in human whole blood, KMS12BM cells; format: cell-based; conditions: KMS-12-BM, read-out: IC50 pBAD whole blood (Ex. B, KMS12BM cells)
KMS12BM cells = assay: Pim cell proliferation assay ([3H]-thymidine), KMS12BM; format: cell-based; conditions: Homo sapiens, KMS-12-BM; read-out: IC50 Tumor cell proliferation (Ex. B, KMS12BM cells)
Experimental: (§1) KM[…] and MOLM16 cells were purchased from DSMZ (Germany) and were maintained according to the recommendations of suppliers. To measure the anti-proliferation activities of test compounds, the cells were plated in their respective culture medium (2×10^3 cells/200 μL/well) into 96-well ultralow binding plates (Corning), with or without test compound(s). After 3 to 4 days, [3H]-thymidine (1 μCi/well) (PerkinElmer) in PBS (10 μL) was then added to the cell culture for an additional 12 hours before the incorporated radioactivity was separated by filtration with water through GF/B filters (Packard Bioscience) and measured by liquid scintillation counting with a TopCount (Packard Bioscience).

Pim-3 = Pim-3 (Homo sapiens, UniProt Q86V86); assay: Pim-3 kinase assay; format: biochemical; conditions: 1 mM ATP; read-out: IC50 PIM3 Enzyme (Ex. A)
pBAD in MOLM-16 cell = assay: pBAD signaling assay in human whole blood, MOLM16 cells; format: cell-based; conditions: read-out: IC50 pBAD whole blood (Ex. B, MOLM16 cells)
Pim-1 = molecular target: T2, Pim-1 (Homo sapiens, UniProt P11309); assay: Pim-1 kinase assay; format: biochemical; conditions: 1 mM ATP; read-out: IC50 PIM1 Enzyme (Ex. A)
T2 construct: purchased Invitrogen PV3503
Experimental: Pim-1 and Pim-3 kinase assays—20 μL reactions can be run in white 384 well polystyrene plates dotted with 0.8 μL compound/DMSO in the assay buffer (50 mM Tris, pH 7.5, 0.01% Tween-20, 5 mM MgCl2, 0.01% BSA, 5 mM DTT), containing 0.05 μM Biotin-labeled BAD peptide substrate (AnaSpec 62269), 1 mM ATP, and 2.5 pM (Pim-1, Invitrogen PV3503) or 1.25 pM (Pim-3, Millipore 14-738) enzyme for 1 h at 25° C. Reactions are stopped by addition of 10 μL STOP Buffer (150 mM Tris, pH=7.5, 150 mM NaCl, 75 mM EDTA, 0.01% Tween-20, 0.3% BSA) supplemented with Phospho-Bad (Ser112) Antibody (Cell Signaling 9291) diluted 666-fold, and Streptavidin donor beads (PerkinElmer 6760002) along with Protein-A acceptor beads (PerkinElmer 6760137) at 15 μg/mL each. Supplementation of the STOP buffer with beads and stopping the reactions are done under reduced light. Prior to the stopping reactions STOP buffer with beads is pre-incubated for 1 h in the dark at room temperature. After stopping the reactions, plates are incubated for 1 h in the dark at room temperature before reading on a PHERAstar FS plate reader (BMG Labtech) under reduced light.

MOLM16 cells = assay: Pim cell proliferation assay ([3H]-thymidine), MOLM16; format: cell-based; conditions: read-out: IC50 Tumor cell proliferation (Ex. B, MOLM16 cells)
Experimental: as §1

pBAD in KMS12BM cells [3] = assay: Pim pBAD signaling assay in KMS12BM cells; format: cell-based; conditions: Homo sapiens, KMS-12-BM, 2.5 hours, read-out: IC50 pBAD KMS12BM cells (Ex. B)
[4] = Stability study under phase equilibration conditions (XRPD); format: physicochemical; conditions: 2-3 days, all solvents and solvent mixtures tested
Experimental: Phase equilibration studies were designed to provide information on a predominant crystal form for phase identification. Compound 1 phosphoric acid salt (Form I) was equilibrated in a representative group of solvents at 25±1° C. (chloroform, DMF, 1,4-dioxane, methanol and methanol/20% water, 2-methoxyethanol and 2-methoxyethanol/20% water, MIBK, THF and THF/20% water, acetone, n-BuOH and n-BuOH/20% water, EtOH and EtOH/20% water, isobutyl acetate, 1-propanol and 1-propanol/20% water, isopropanol, water, and MEK) and 50±1° C. (chloroform, DMF, 1,4-dioxane, methanol and methanol/20% water, 2-methoxyethanol and 2-methoxyethanol/20% water, MIBK, THF and THF/20% water, acetone, n-BuOH and n-BuOH/20% water, EtOH and EtOH/20% water, EtOAc, ethyl formate, 1-propanol and 1-propanol/20% water, isopropanol, IPA/MeOH/Water (1.73/0.79/0.08), IPA/water (3/2), water) controlled by IKA® ETS-D5 temperature controller and IKA® RCT basic safety control.
To 3 mL of a solvent or a mixture of solvents (chosen from a list for the respective temperature) was added Compound 1 phosphate (Form I) until a cloudy solution was obtained, then, about 30 mg of Compound 1 phosphate (Form I) was added to the cloudy solution. The mixture was stirred at 25±1° C. or 50±1° C., respectively, for 2-3 days. The solid was filtered and analyzed by XRPD. […]

[5] = Stability study of Form I under environmental conditions (XRPD); format: physicochemical
Text: Compound 1 phosphoric acid salt Form I was subjected to various different environmental conditions to assess stability.

PIM kinase = assay: Pim enzyme assays (isoform not given); format: biochemical; conditions: 1 mM ATP; Pim isoform not stated

T2 sequence (P11309 whole entry): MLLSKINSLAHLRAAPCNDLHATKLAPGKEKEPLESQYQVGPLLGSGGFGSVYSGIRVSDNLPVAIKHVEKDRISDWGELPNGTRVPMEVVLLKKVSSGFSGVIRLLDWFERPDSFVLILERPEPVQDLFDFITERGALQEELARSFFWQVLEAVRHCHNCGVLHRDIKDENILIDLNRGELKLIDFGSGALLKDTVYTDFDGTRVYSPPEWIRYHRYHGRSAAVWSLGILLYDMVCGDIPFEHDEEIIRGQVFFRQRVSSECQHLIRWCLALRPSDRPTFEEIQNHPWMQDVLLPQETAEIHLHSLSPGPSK
T1 sequence (Q9P1W9 whole entry): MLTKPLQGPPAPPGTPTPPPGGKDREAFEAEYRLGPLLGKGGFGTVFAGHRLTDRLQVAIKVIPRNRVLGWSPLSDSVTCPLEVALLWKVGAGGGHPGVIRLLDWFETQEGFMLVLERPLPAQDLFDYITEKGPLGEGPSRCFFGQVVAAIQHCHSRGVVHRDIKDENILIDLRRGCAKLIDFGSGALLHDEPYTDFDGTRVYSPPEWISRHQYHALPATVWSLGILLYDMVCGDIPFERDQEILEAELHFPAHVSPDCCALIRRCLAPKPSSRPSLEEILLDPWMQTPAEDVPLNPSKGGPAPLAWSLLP

With C[C@H]1CN(c2c(NC(=O)c3ccc(F)c(-c4c(F)cccc4F)n3)cnc3c2CC[C@H]3O)C[C@@H](N)[C@@H]1O [Compound 1 H3PO4 salt, N-{(7R)-4-[(3R,4R,5S)-3-amino-4-hydroxy-5-methylpiperidin-1-yl]-7-hydroxy-6,7-dihydro-5H-cyclopenta[b]pyridin-3-yl}-6-(2,6-difluorophenyl)-5-fluoropyridine-2-carboxamide phosphoric acid salt] the Solid state form ([1]; IPA/MeOH/water/DMSO (56.6/28.3/3.0/12.1)) was “Form I” and the Solid state form ([1]; IPA/MeOH/water/DMSO (61.8/28.2/2.9/7.1)) was “Form I”.

C[C@H]1CN(c2c(NC(=O)c3ccc(F)c(-c4c(F)cccc4F)n3)cnc3c2CC[C@H]3O)C[C@@H](N)[C@@H]1O [Compound 1 di-HCl salt, N-{(7R)-4-[(3R,4R,5S)-3-amino-4-hydroxy-5-methylpiperidin-1-yl]-7-hydroxy-6,7-dihydro-5H-cyclopenta[b]pyridin-3-yl}-6-(2,6-difluorophenyl)-5-fluoropyridine-2-carboxamide dihydrochloride] showed an IC50 (Pim-2) of less than 35 nM, an IC50 (pBAD in KMS12BM cells [2]) of less than 200 nM and an IC50 (KMS12BM cells) of less than 100 nM. For the same compound, the IC50 (Pim-3) was less than 35 nM, the IC50 (pBAD in MOLM-16 cell) was less than 100 nM and the IC50 (Pim-1) was less than 35 nM. The IC50 (MOLM16 cells) was less than 35 nM and the IC50 (pBAD in KMS12BM cells [3]) was less than 35 nM.

With C[C@H]1CN(c2c(NC(=O)c3ccc(F)c(-c4c(F)cccc4F)n3)cnc3c2CC[C@H]3O)C[C@@H](N)[C@@H]1O [Compound 1 phosphoric acid salt Form I, N-{(7R)-4-[(3R,4R,5S)-3-amino-4-hydroxy-5-methylpiperidin-1-yl]-7-hydroxy-6,7-dihydro-5H-cyclopenta[b]pyridin-3-yl}-6-(2,6-difluorophenyl)-5-fluoropyridine-2-carboxamide phosphoric acid salt] the “Solid form after phase equilibration (XRPD)” value ([4]; 25±1° C.) was “Form I”, the “Solid form after phase equilibration (XRPD)” value ([4]; 50±1° C.) was “Form I” and the “Crystalline Form (XRPD)” value ([5]; 40° C./75% RH for 1 week) was “Form I”. For the same compound, the “Crystalline Form (XRPD)” value ([5]; 50° C. vacuum dry for 1 day) was “Form I”, the “Crystalline Form (XRPD)” value ([5]; 100° C. vacuum dry for 1 day) was “Form I” and the “Crystalline Form (XRPD)” value ([5]; 210° C. vacuum dry followed by 40° C./75% RH for 4 weeks) was “Form I”. For the same compound, the “Crystalline Form (XRPD)” value ([5]; 210° C. vacuum dry for 20 min) was “Not Form I” and the “Crystalline Form (XRPD)” value ([5]; Suspension in 0.5% methyl cellulose in water) was “Form I”.

In the case of C[C@H]1CN(c2c(NC(=O)c3ccc(F)c(-c4c(F)cccc4F)n3)cnc3c2CC[C@H]3O)C[C@@H](N)[C@@H]1O [Compound 1, N-{(7R)-4-[(3R,4R,5S)-3-amino-4-hydroxy-5-methylpiperidin-1-yl]-7-hydroxy-6,7-dihydro-5H-cyclopenta[b]pyridin-3-yl}-6-(2,6-difluorophenyl)-5-fluoropyridine-2-carboxamide], the IC50 (PIM kinase) is reported as less than 100 nM.
